What was measured:
Assay type in all cases: biochemical
PKC theta kinase = PKC theta kinase (Homo sapiens, UniProt Q04759); experiment: PKC theta kinase inhibition, coupled-enzyme (NADH absorbance) assay, Ki; conditions: 240 μM ATP, 18 nM PKC theta kinase, 30° C.
How it was run: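 Coupled-enzyme kinase assay following NADH absorbance at 340 nm, in 100 mM HEPES pH 7.5, 10 mM MgCl2, 25 mM NaCl, 0.1 mM EDTA, 0.01% Brij. Compound in DMSO preincubated with enzyme 10 min at 30 °C. Ki from initial rates by non-linear regression.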

PKC delta kinase = PKC delta kinase (Homo sapiens, UniProt Q05655); experiment: PKC delta kinase inhibition, coupled-enzyme (NADH absorbance) assay, Ki; conditions: 150 μM ATP, 46 nM PKC delta kinase, 30° C.; read-out: Ki PKC delta
Sequence of PKC delta kinase (Q05655 whole entry): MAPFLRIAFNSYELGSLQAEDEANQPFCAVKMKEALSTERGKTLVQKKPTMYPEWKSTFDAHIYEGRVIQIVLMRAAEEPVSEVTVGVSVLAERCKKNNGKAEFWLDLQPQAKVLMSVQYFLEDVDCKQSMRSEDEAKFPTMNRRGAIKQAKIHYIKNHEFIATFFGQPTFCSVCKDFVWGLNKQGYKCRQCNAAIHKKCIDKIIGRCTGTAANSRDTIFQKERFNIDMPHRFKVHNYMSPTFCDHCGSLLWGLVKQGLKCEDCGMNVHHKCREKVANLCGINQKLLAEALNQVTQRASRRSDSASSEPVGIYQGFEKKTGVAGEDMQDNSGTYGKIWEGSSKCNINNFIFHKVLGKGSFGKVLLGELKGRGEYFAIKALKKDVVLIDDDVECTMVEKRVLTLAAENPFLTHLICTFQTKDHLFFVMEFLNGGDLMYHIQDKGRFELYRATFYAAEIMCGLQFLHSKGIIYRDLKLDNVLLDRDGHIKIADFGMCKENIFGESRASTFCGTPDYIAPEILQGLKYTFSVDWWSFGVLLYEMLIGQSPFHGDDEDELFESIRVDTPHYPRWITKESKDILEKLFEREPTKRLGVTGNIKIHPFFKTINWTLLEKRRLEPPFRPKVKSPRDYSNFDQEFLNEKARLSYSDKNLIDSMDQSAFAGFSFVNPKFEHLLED
How it was run: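 PKC delta in 100 mM HEPES pH 7.5, 10 mM MgCl2, 25 mM NaCl, 0.1 mM EDTA, 0.01% Brij, equilibrated 10 min at 30° C with compound from DMSO stock. Started with ATP at 150 μM final; NADH-coupled absorbance at 340 nm followed 15 min at 30° C. Ki from initial rates by non-linear regression.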

PKC alpha kinase = PKC alpha kinase (Homo sapiens, UniProt P17252); experiment: PKC alpha kinase inhibition, coupled-enzyme (NADH absorbance) assay, Ki; conditions: 130 μM ATP, 4.5 nM PKC alpha kinase, 30° C.
How it was run: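 Enzyme in 100 mM HEPES pH 7.5, 10 mM MgCl2, 100 μM CaCl2, 0.01% Brij, preincubated with compound 10 min at 30 °C. Reaction started with 130 μM ATP (final); NADH consumption followed at 340 nm for 15 min at 30 °C. Ki fitted by non-linear regression of initial rates.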

Sequence of PKC theta kinase (Q04759 whole entry): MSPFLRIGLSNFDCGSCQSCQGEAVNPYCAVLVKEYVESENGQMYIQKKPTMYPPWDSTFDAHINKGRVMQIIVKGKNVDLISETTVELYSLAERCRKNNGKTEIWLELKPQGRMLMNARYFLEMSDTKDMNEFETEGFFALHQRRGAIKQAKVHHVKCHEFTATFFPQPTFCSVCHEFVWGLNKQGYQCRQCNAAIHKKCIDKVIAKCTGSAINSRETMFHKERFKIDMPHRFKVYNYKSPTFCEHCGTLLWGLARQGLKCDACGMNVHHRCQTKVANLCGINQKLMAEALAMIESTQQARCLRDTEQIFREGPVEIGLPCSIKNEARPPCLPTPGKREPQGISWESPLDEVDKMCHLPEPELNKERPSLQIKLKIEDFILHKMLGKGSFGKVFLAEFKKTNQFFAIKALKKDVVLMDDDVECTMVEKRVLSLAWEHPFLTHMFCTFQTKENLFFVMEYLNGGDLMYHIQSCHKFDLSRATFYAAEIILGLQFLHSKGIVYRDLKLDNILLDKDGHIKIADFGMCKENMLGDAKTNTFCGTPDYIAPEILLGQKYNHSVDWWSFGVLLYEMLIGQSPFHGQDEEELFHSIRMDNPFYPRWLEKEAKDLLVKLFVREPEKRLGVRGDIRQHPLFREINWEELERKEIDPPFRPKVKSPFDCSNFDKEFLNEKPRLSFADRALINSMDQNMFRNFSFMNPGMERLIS

Compound | Ki (PKC theta kinase) | Ki (PKC delta kinase) | Ki (PKC alpha kinase)
NC1CCN(c2ccc(C(F)(F)F)c(-c3n[nH]c4ncccc34)n2)CC12CCOCC2 (stereo not drawn) [Compound 462] | < 500 nM | < 2800 nM | > 1250 nM
C[C@@H]1CN(c2ccc(C(F)(F)F)c(-c3n[nH]c4ncccc34)n2)CCN1 [Compound 117] | < 500 nM | > 1250 nM | > 1250 nM
Clc1cccc(C2CN(c3cccc(-c4n[nH]c5ncccc45)n3)CCN2)c1 (stereo not drawn) [Compound 18] | < 50 nM | < 2800 nM | < 2800 nM
FC(F)(F)c1ccc(N2CCNC(c3ccccc3)C2)nc1-c1n[nH]c2ncccc12 (stereo not drawn) [Compound 5] | < 50 nM | > 2000 nM | > 1250 nM
FC(F)(F)c1ccc(N2CCNC(c3cccc(Cl)c3)C2)nc1-c1n[nH]c2ncccc12 (stereo not drawn) [Compound 170] | < 50 nM | < 2800 nM | < 500 nM
NCc1cccc(-c2cccc(-c3n[nH]c4ncccc34)n2)c1 [Compound 335] | < 2800 nM | < 2800 nM | < 2800 nM
FC(F)(F)c1ccc(N2CCNC(c3cccc(Br)c3)C2)nc1-c1n[nH]c2ncccc12 (stereo not drawn) [Compound 172] | < 500 nM | > 1250 nM | < 2800 nM
CC(C)C[C@H]1CN(c2ccc(C(F)(F)F)c(-c3n[nH]c4ncccc34)n2)C[C@H](C)N1 [Compound 202] | > 700 nM | > 1250 nM | > 1250 nM
c1cc(-c2n[nH]c3ncccc23)nc(N2CCN[C@@H](CC3CC3)C2)c1 [Compound 162] | < 50 nM | < 500 nM | < 2800 nM
CC(C)C[C@@H]1CC(O)(c2cccc(-c3n[nH]c4ncccc34)n2)CCN1 (stereo partly drawn) [Compound 73] | > 700 nM | > 2000 nM | > 1250 nM
C=C(F)c1ccc(N2CCN[C@@H](CC(C)C)C2)nc1-c1n[nH]c2ncccc12 [Compound 6] | < 50 nM | < 500 nM | < 500 nM
CC(C)C[C@H]1CN(c2cc(C#N)cc(-c3n[nH]c4ncccc34)n2)CCN1 [Compound 442] | < 500 nM | < 500 nM | > 1250 nM
OC1(C2CN(c3cccc(-c4n[nH]c5ncccc45)n3)CCN2)CC1 (stereo not drawn) [Compound 186] | < 50 nM | < 50 nM | < 2800 nM
CC(C)C(C)(O)C1CN(c2cc(C(F)(F)F)cc(-c3n[nH]c4ncccc34)n2)CCN1 (stereo not drawn) [Compound 342] | < 500 nM | > 1250 nM | > 1250 nM
FC(F)(F)c1ccc(N2CCC(Nc3ccccc3)CC2)nc1-c1n[nH]c2ncccc12 [Compound 358] | > 700 nM | > 1250 nM | > 1250 nM
FC(F)(F)c1ccc(N2CC3CCC(C2)N3)nc1-c1n[nH]c2ncccc12 [Compound 120] | < 500 nM | < 2800 nM | > 1250 nM
CC(C)(C)C(N)C1CCCN(c2ccc(F)c(-c3n[nH]c4ncccc34)n2)C1 (stereo not drawn) [Compound 308] | < 50 nM | < 2800 nM | > 1250 nM

Compound | Ki (PKC theta kinase) | Ki (PKC delta kinase) | Ki (PKC alpha kinase)
FC1(c2cccc(-c3n[nH]c4ncccc34)n2)CCNCC1 [Compound 83] | < 50 nM | < 500 nM | < 2800 nM
CCC[C@H]1CN(c2ccc(C(F)(F)F)c(-c3n[nH]c4ncccc34)n2)CC(F)(F)CN1 [Compound 223] | > 700 nM | > 1250 nM | > 1250 nM
CC(C)(O)CC1CN(c2cccc(-c3n[nH]c4ncccc34)n2)CCN1 (stereo not drawn) [Compound 36] | < 50 nM | < 500 nM | < 2800 nM
CC(C)C(C)(O)C1CN(c2ccc(F)c(-c3n[nH]c4ncccc34)n2)CCN1C(=O)OC(C)(C)C (stereo not drawn) [Compound 424] | > 700 nM | > 1250 nM | > 1250 nM
OC1CCCN(c2ccc(C(F)(F)F)c(-c3n[nH]c4ncccc34)n2)C1 (stereo not drawn) [Compound 423] | > 700 nM | > 1250 nM | > 1250 nM
CC(C)CC1(O)CNCCN(c2ccc(F)c(-c3n[nH]c4ncccc34)n2)C1 (stereo not drawn) [Compound 196] | < 500 nM | > 1250 nM | > 1250 nM
CC(C)(C)C(N)C1CCCN(c2ccc(F)c(-c3n[nH]c4ncccc34)n2)C1 (stereo not drawn) [Compound 330] | < 1 nM | < 10 nM | < 500 nM
CC1(N)CCCN(c2ccc(C(F)(F)F)c(-c3n[nH]c4ncccc34)n2)C1 (stereo not drawn) [Compound 319] | > 700 nM | > 1250 nM | > 1250 nM
CCC[C@H]1CN(c2ccc(C(F)(F)F)c(-c3n[nH]c4ncccc34)n2)C[C@@H]1N [Compound 341] | > 700 nM | > 1250 nM | > 1250 nM
COC(C)(C)CC1CN(c2cccc(-c3n[nH]c4ncccc34)n2)CCN1 (stereo not drawn) [Compound 101] | < 50 nM | > 1250 nM | > 1250 nM
COc1ccccc1C1CN(c2ccc(C(F)(F)F)c(-c3n[nH]c4ncccc34)n2)CCN1 (stereo not drawn) [Compound 114] | < 500 nM | > 1250 nM | > 1250 nM
CC(C)CC1CN(c2ccc(C(F)(F)F)c(-c3n[nH]c4ncccc34)n2)CCC1CCN (stereo not drawn) [Compound 469] | < 500 nM | > 1250 nM | > 1250 nM
CC(C)(F)C(C)(O)C1CN(c2ccc(F)c(-c3n[nH]c4ncccc34)n2)CCN1 (stereo not drawn) [Compound 250] | < 50 nM | < 500 nM | > 1250 nM
NC(c1ccccc1)C1CCCN(c2ccc(F)c(-c3n[nH]c4ncccc34)n2)C1 (stereo not drawn) [Compound 301] | < 500 nM | > 1250 nM | > 1250 nM
CC(C)C[C@H]1CN(c2ccc(C(F)(F)F)c(-c3n[nH]c4ncccc34)n2)C[C@@H](C)N1 [Compound 203] | < 50 nM | < 500 nM | < 500 nM
OCc1cc(-c2n[nH]c3ncccc23)nc(N2CCNCC2)c1 [Compound 443] | < 500 nM | < 2800 nM | > 1250 nM

Next, values leading:

Ki (PKC theta kinase) | Ki (PKC delta kinase) | Ki (PKC alpha kinase) | Compound
< 50 nM | < 500 nM | > 1250 nM | CC(C)(F)CC1CN(c2ccc(F)c(-c3n[nH]c4ncccc34)n2)CCN1 (stereo not drawn) [Compound 151]
< 500 nM | < 2800 nM | > 2800 nM | Cc1ccc(N2CCNCC2)nc1-c1n[nH]c2ncccc12 [Compound 3]
< 50 nM | < 500 nM | < 500 nM | CC(C)C[C@H]1CN(c2ccc(F)c(-c3n[nH]c4ncccc34)n2)CC[C@H]1N [Compound 152]
< 500 nM | < 2800 nM | < 2800 nM | CO[C@H]1CN(c2ccc(F)c(-c3n[nH]c4ncccc34)n2)CC[C@H]1N [Compound 389]
> 700 nM | > 1250 nM | > 1250 nM | NC[C@@H]1CCCN1c1ccc(F)c(-c2n[nH]c3ncccc23)n1 [Compound 355]
> 700 nM | > 1250 nM | > 1250 nM | O=C1CN(c2ccc(F)c(-c3n[nH]c4ncccc34)n2)CCN1 [Compound 255]
< 500 nM | > 1250 nM | > 1250 nM | CC(C)C(C)(O)[C@H]1CCCN(c2ccc(F)c(-c3n[nH]c4ncccc34)n2)C1 (stereo partly drawn) [Compound 277]
< 50 nM | < 500 nM | < 2800 nM | Fc1ccc(N2CCNC3(CCC3)C2)nc1-c1n[nH]c2ncccc12 [Compound 188]
< 50 nM | > 1250 nM | > 1250 nM | CC(C)(C(N)C1CCCN(c2ccc(F)c(-c3n[nH]c4ncccc34)n2)C1)C(F)(F)F (stereo not drawn) [Compound 390]
< 50 nM | > 1250 nM | > 1250 nM | CC(C)(C)CC(N)C1CCCN(c2ccc(F)c(-c3n[nH]c4ncccc34)n2)C1 (stereo not drawn) [Compound 317]
< 50 nM | < 500 nM | > 1250 nM | CC(C)(C)C(N)C1CCN(c2ccc(F)c(-c3n[nH]c4ncccc34)n2)C1 (stereo not drawn) [Compound 421]
< 500 nM | > 1250 nM | > 1250 nM | NC1CCN(c2ccc(F)c(-c3n[nH]c4ncccc34)n2)CC1 [Compound 368]
< 500 nM | > 1250 nM | > 1250 nM | CC(C)C(O)[C@@H]1CCCN(c2ccc(F)c(-c3n[nH]c4ncccc34)n2)C1 (stereo partly drawn) [Compound 278]
> 700 nM | > 1250 nM | > 1250 nM | CC(=O)NCC1CCCN(c2ccc(F)c(-c3n[nH]c4ncccc34)n2)C1 (stereo not drawn) [Compound 303]
< 500 nM | < 500 nM | < 2800 nM | CC(C)(N)C1CCCN(c2ccc(F)c(-c3n[nH]c4ncccc34)n2)C1 (stereo not drawn) [Compound 310]
< 50 nM | > 1250 nM | > 1250 nM | CC1(C)CC1(O)C1CN(c2ccc(F)c(-c3n[nH]c4ncccc34)n2)CCN1 (stereo not drawn) [Compound 380]
< 50 nM | < 500 nM | > 1250 nM | CC(N)[C@H]1CCCN(c2ccc(F)c(-c3n[nH]c4ncccc34)n2)C1 (stereo partly drawn) [Compound 262]
< 500 nM | > 1250 nM | > 1250 nM | CC1(C)CC1(O)C1CN(c2ccc(F)c(-c3n[nH]c4ncccc34)n2)CCN1 (stereo not drawn) [Compound 383]
< 50 nM | < 500 nM | < 2800 nM | CC(O)(C1CC1)C1CN(c2ccc(F)c(-c3n[nH]c4ncccc34)n2)CCN1 (stereo not drawn) [Compound 247]
< 50 nM | < 500 nM | < 2800 nM | CC(C)C(N)C1CCCN(c2ccc(F)c(-c3n[nH]c4ncccc34)n2)C1 (stereo not drawn) [Compound 280]
